Tests used:
[1] = system: mouse leukemia cells (P388); experiment: Growth inhibition activity on mouse leukemia cells (P388); type: cell-based; details: 24 h with compound, Thiazoyl Blue, absorbance 550 nm, read-out: 50% inhibition concentration (IC50, nM) P-388
Experimental: Growth Inhibition Activity on Mouse Leukemia Cells
10 μl of a medium containing a test compound was added, and culture was continued at 37° C. for further 24 hours under 5% CO2. 10 μl of 0.5% Thiazoyl Blue was added to the cultured medium, and incubation was made at 37° C. for 2 hours under 5% CO2 to carry out enzymatic reaction. 20% sodium dodecyl sulfate (SDS) was added to discontinue the reaction, and incubation was carried out at 37° C. for further 4 hours to dissolve the resulting dye, and absorbance at 550 nm was measured and compared with the control group.

[2] = system: human gastric cancer cells (MKN-45); experiment: Growth inhibition activity on human gastric cancer cells (MKN-45); type: cell-based; details: MKN-45 cells, 72 h with compound, Sulforhodamine B, absorbance 560 nm; read-out: 50% inhibition concentration (IC50, nM) MKN-45
Experimental: (§1) Growth Inhibition Activity on Human Gastric Cancer Cells, Human Colon Cancer Cells and Human Lung Cancer Cells
(§2) 100 μl of a medium containing a test compound was added, and culture was continued at 37° C. for further 72 hours under 5% CO2. After completion of the culture, 50 μl of 50% trichloroacetic acid was added to the cultured medium, and the mixtures were held at 4° C. for 60 minutes to fix the cells. The cultured medium containing trichloroacetic acid was removed, and the wells were washed with tap water and dried. 50 μl of 0.4% Sulforhodamine B solution was added, and the mixtures were held at room temperature for 30 minutes to dye the cells. The dyeing solutions were removed, and the remaining dyeing solutions were washed away with 1% acetic acid. After complete removal of the acetic acid solution and drying, 200 μl of […] Tris solution was added and the mixtures were mixed well at room temperature for 1 hour or more to extract the dye. Absorbance of each well at 560 nm was measured, and the inhibition proportion in comparison with the group of no addition of any drug was calculated.

[3] = system: human colon cancer cells (DLD-1); experiment: Growth inhibition activity on human colon cancer cells (DLD-1); type: cell-based; details: DLD-1 cells, 72 h with compound, Sulforhodamine B, absorbance 560 nm; read-out: 50% inhibition concentration (IC50, nM) DLD-1
Experimental: as §1, §2

[4] = system: human lung cancer cells (PC-13); experiment: Growth inhibition activity on human lung cancer cells (PC-13); type: cell-based; details: PC-13 cells, 72 h with compound, Sulforhodamine B, absorbance 560 nm; read-out: 50% inhibition concentration (IC50, nM) PC-13
Experimental: as §1, §2

[5] = system: Human gastric cancer MKN-45; experiment: Antitumor effect on human gastric cancer (MKN-45) solid tumor implanted in mice; type: in vivo, mouse; details: total dose to inhibit tumor growth by 75%; s.c. implanted tumor in mice, tail vein injection, 5/w×2 or 2/w×2, measured 28 after start
Experimental: (§3) Antitumor Effect on Human Gastric Cancer (MKN-45), Human Breast Cancer (MX-1) and Human Colon Cancer (LS180)
(§4) A MKN-45, MX-1 or LS180 solid tumor previously subcutaneously implanted in a nude mouse and grown was thinly cut, and its cubes with each side 3 mm were subcutaneously implanted in test mice. After the implantation, starting from the time when the tumor grew into 0.3 cm^3 or more, various dosages of a test compound were injected once a day for 5 consecutive days into the tail veins of the mice. The same injections were then made for further 5 days after 2 days of interval (treatment schedule: 5/w×2) or once every 3-4 days, four times in total (treatment schedule: 2/w×2). 28 after the start of the treatment, the length (L) and the breadth (W) of each of the tumors were measured, and its volume (V) was calculated (V=½×L×W^2).

Human breast cancer MX-1 = experiment: Antitumor effect on human breast cancer (MX-1) solid tumor implanted in mice; type: in vivo, mouse; details: total dose to inhibit tumor growth by 75%; s.c. implanted tumor in mice, tail vein injection, 5/w×2 or 2/w×2, measured 28 after start
Experimental: as §3, §4

Human colon cancer LS180 = experiment: Antitumor effect on human colon cancer (LS180) solid tumor implanted in mice; type: in vivo, mouse; details: total dose to inhibit tumor growth by 75%; s.c. implanted tumor in mice, tail vein injection, 5/w×2 or 2/w×2, measured 28 after start
Experimental: as §3, §4

For O=C1c2c(c3c4ccc(O)cc4n([C@@H]4O[C@H](CO)[C@@H](O)[C@H](O)[C@H]4O)c3c3[nH]c4cc(O)ccc4c23)C(=O)N1NCc1ccncc1 [Example 24], the IC50 [1] was 0.48 nM, the IC50 [2] was 0.71 nM and the IC50 [3] was 3.3 nM. The IC50 [4] was 0.27 nM, the “GID75 (mg/m^2 total) Human gastric cancer MKN-45” value [5] was 12 mg/m^2 and the “GID75 (mg/m^2 total) Human breast cancer MX-1” value (Human breast cancer MX-1) was 27 mg/m^2. The “GID75 (mg/m^2 total) Human colic cancer LS180” value (Human colon cancer LS180) was 114 mg/m^2.
In the case of O=C1c2c(c3c4ccc(O)cc4n([C@@H]4O[C@H](CO)[C@@H](O)[C@H](O)[C@H]4O)c3c3[nH]c4cc(O)ccc4c23)C(=O)N1NCc1cscc1CO [Example 20], the IC50 [1] is reported as 0.87 nM, the IC50 [2] is reported as 0.92 nM and the IC50 [3] is reported as 1 nM. For the same compound, the IC50 [4] was 0.67 nM and the “GID75 (mg/m^2 total) Human breast cancer MX-1” value (Human breast cancer MX-1) was <30 mg/m^2.
Work on O=C1c2c(c3c4ccc(O)cc4n([C@@H]4O[C@H](CO)[C@@H](O)[C@H](O)[C@H]4O)c3c3[nH]c4cc(O)ccc4c23)C(=O)N1NCc1ccsc1CO [Example 18] yielded an IC50 [1] of 0.43 nM, an IC50 [2] of 0.66 nM and an IC50 [3] of 4.6 nM. The IC50 [4] was 0.3 nM and the “GID75 (mg/m^2 total) Human breast cancer MX-1” value (Human breast cancer MX-1) was 16 mg/m^2.
O=C1c2c(c3c4cccc(O)c4n(C4OC(CO)C(O)C(O)C4O)c3c3[nH]c4c(O)cccc4c23)C(=O)N1NCc1cccc(O)c1 (stereo not drawn) [Control compound 2, reference compound] gave an IC50 [1] of 6.5 nM, an IC50 [2] of 12 nM and an IC50 [3] of 76 nM. For the same compound, the IC50 [4] was 48 nM.
In the case of O=C1c2c(c3c4ccc(O)cc4n(C4OC(CO)C(O)C(O)C4O)c3c3[nH]c4cc(O)ccc4c23)C(=O)N1NCc1cccc(O)c1 (stereo not drawn) [Control compound, reference compound], the “GID75 (mg/m^2 total) Human gastric cancer MKN-45” value [5] is reported as 370 mg/m^2, the “GID75 (mg/m^2 total) Human breast cancer MX-1” value (Human breast cancer MX-1) is reported as 97 mg/m^2 and the “GID75 (mg/m^2 total) Human colic cancer LS180” value (Human colon cancer LS180) is reported as 1900 mg/m^2.
O=C1c2c(c3c4ccc(O)cc4n([C@@H]4O[C@H](CO)[C@@H](O)[C@H](O)[C@H]4O)c3c3[nH]c4cc(O)ccc4c23)C(=O)N1NCc1cccc(CO)n1 [Example 15] showed an IC50 [1] of 0.5 nM, an IC50 [2] of 2.1 nM and an IC50 [3] of 4.3 nM. The IC50 [4] was 0.62 nM, the “GID75 (mg/m^2 total) Human gastric cancer MKN-45” value [5] was <90 mg/m^2 and the “GID75 (mg/m^2 total) Human breast cancer MX-1” value (Human breast cancer MX-1) was <6 mg/m^2. The “GID75 (mg/m^2 total) Human colic cancer LS180” value (Human colon cancer LS180) was 400 mg/m^2.
For O=C1c2c(c3c4ccc(O)cc4n([C@@H]4O[C@H](CO)[C@@H](O)[C@H](O)[C@H]4O)c3c3[nH]c4cc(O)ccc4c23)C(=O)N1NCc1csc(CO)c1 [Example 23], the IC50 [1] was 0.48 nM, the IC50 [2] was 1.5 nM and the IC50 [3] was 8.9 nM. For the same compound, the IC50 [4] was 2.3 nM and the “GID75 (mg/m^2 total) Human breast cancer MX-1” value (Human breast cancer MX-1) was 19 mg/m^2.
Work on O=C1c2c(c3c4ccc(O)cc4n([C@@H]4O[C@H](CO)[C@@H](O)[C@H](O)[C@H]4O)c3c3[nH]c4cc(O)ccc4c23)C(=O)N1NCc1sc(CO)cc1CO [Example 16] yielded an IC50 [1] of 0.4 nM, an IC50 [2] of 1.3 nM and an IC50 [3] of 4 nM. For the same compound, the IC50 [4] was 0.56 nM and the “GID75 (mg/m^2 total) Human breast cancer MX-1” value (Human breast cancer MX-1) was <36 mg/m^2.
O=C1c2c(c3c4ccc(O)cc4n([C@@H]4O[C@H](CO)[C@@H](O)[C@H](O)[C@H]4O)c3c3[nH]c4cc(O)ccc4c23)C(=O)N1NCc1sccc1CO [Example 19] was tested, and the IC50 [1] was 0.19 nM, the IC50 [2] was 0.92 nM and the IC50 [3] was 1.3 nM. The IC50 [4] was 0.5 nM and the “GID75 (mg/m^2 total) Human breast cancer MX-1” value (Human breast cancer MX-1) was <30 mg/m^2.
Work on O=C1c2c(c3c4ccc(O)cc4n([C@@H]4O[C@H](CO)[C@@H](O)[C@H](O)[C@H]4O)c3c3[nH]c4cc(O)ccc4c23)C(=O)N1NCc1ccncc1CO [Example 3] yielded an IC50 [1] of 0.28 nM, an IC50 [2] of 0.35 nM and an IC50 [3] of 0.91 nM. The IC50 [4] was 0.22 nM, the “GID75 (mg/m^2 total) Human gastric cancer MKN-45” value [5] was <30 mg/m^2 and the “GID75 (mg/m^2 total) Human breast cancer MX-1” value (Human breast cancer MX-1) was <12 mg/m^2. For the same compound, the “GID75 (mg/m^2 total) Human colic cancer LS180” value (Human colon cancer LS180) was 48 mg/m^2.
O=C1c2c(c3c4ccc(O)cc4n([C@@H]4O[C@H](CO)[C@@H](O)[C@H](O)[C@H]4O)c3c3[nH]c4cc(O)ccc4c23)C(=O)N1NCc1ccc(CO)o1 [Example 22] showed an IC50 [1] of 0.63 nM, an IC50 [2] of 1.8 nM and an IC50 [3] of 1 nM. It also gave an IC50 [4] of 0.58 nM.

Source: patent US6703373B1, “Indolopyrrolocarbazole derivatives and antitumor agents” (Banyu Pharmaceutical Co., Ltd., priority 2002, dated 2004)
